{"source": "patent US20260021106A1", "about": "“COMBINATION THERAPY FOR TREATING CANCERS” (GEISTLICH PHARMA AG, priority 2022, published 2026)", "key": {"hexokinase 2": {"tested_on": "hexokinase 2", "experiment": "Hexokinase activity and expression (ultra-high resolution mass spectrometry, FIG. 10)", "type": "cell-based, human", "description": "(§1) In vitro assays: Cell viability assay, Western blotting, Colony formation assay, Reverse-phase protein array, and Ultra-high resolution mass spectrometry analysis were performed.\n(§2) (ns, not significant, **P<0.01; **P<0.001 (vs. control; Student t-test))."}, "[1]": {"tested_on": "hypoxia-inducible factor-la", "experiment": "Reverse Phase Protein Array (RPPA), HIF-1α", "type": "cell-based, human", "description": "as §1"}, "AKT [2]": {"tested_on": "AKT", "experiment": "In vivo pharmacodynamic experiment, OVCAR8 mouse model, AKT", "settings": "dose of 500 mg/kg", "description": "(§3) In vivo model of ovarian cancer: Pharmacodynamic study and therapeutic experiment using OVCAR8 ovarian cancer model were performed. FIGS. 8A-8B show the cytotoxic effect of GP-2250 on ovarian cancer cells.\n(§4) FIGS. 11A-11B show pharmacodynamics studies of GP-2250."}, "cancer cells": {"tested_on": "cancer cells", "experiment": "Glycolysis and ATP synthesis in cancer cells", "type": "cell-based", "source_text": "as §2"}, "OVCAR8-L": {"tested_on": "OVCAR8-L", "experiment": "In vivo therapy experiment, orthotopic OVCAR8-L ovarian cancer mouse model", "design": "species or system mice", "settings": "GP-2250 500 mg/kg 3 times per week, bevacizumab 6.25 mg/kg, take down day 49", "description": "FIG. 5 schematically illustrates the experimental design for in vivo testing of the GP-2250 and bevacizumab on OVCAR8-L mice. The experiment includes testing: 1) IgG control (10 mice, 6.25 mg/kg, BW); 2) GP-2250 (10 mice, 500 mg/kg. 3 times per week); 3) Bevacizumab (10 mice, 6.25 mg/kg, BW) (“BEV”); and 4) the combination of GP-2250 and Bevacizumab.\nTumorigenicity of OVCAR8-L was determined using IVIS imaging. IVIS imaging following OCVAR8-L injection. 1×10^6 cells were injected through i.p., and then tumorigenicity was measured. All mice were injected with high-grade ovarian cancer cells (OVCAR8) labeled with luciferase gene by i.p. route. All mice survived until the end of the study. No mice were euthanized due to the effect of tumor. Five weeks after treatment, all mice were euthanized, body weight was measured, and no significant body weight change in each group.\nas §3"}, "ovarian cancer cells": {"tested_on": "ovarian cancer cells", "experiment": "Cell viability assay / cytotoxic effect in ovarian cancer cell lines", "type": "cell-based, human", "description": "(§5) Human Ovarian cancer cell lines: A2780, Coav3, HeyA8, HeyA8-MDR, Kuramochi, OVCAR3, OVCAR5, OVCAR8, and SKOV3 were obtained and used in studies.\nas §1, §3"}, "VEGF": {"tested_on": "VEGF", "experiment": "VEGF secretion in cancer cells", "type": "cell-based", "settings": "compared to vehicle", "source_text": "(§6) GP-2250 inhibits mTOR, AKT and HIF-1α expression."}, "AKT [3]": {"tested_on": "AKT", "experiment": "Reverse Phase Protein Array (RPPA), AKT", "type": "cell-based, human", "description": "as §1"}, "HIF1α": {"tested_on": "HIF1α", "experiment": "Western blotting of ovarian cancer cells, HIF1α", "type": "cell-based, human", "settings": "treated 24 hours, Western blot", "description": "as §6, §5, §1"}, "mTOR [4]": {"tested_on": "mTOR", "experiment": "In vivo pharmacodynamic experiment, OVCAR8 mouse model, mTOR", "settings": "dose of 500 mg/kg", "description": "as §3, §4"}, "mTOR [5]": {"tested_on": "mTOR", "experiment": "Western blotting of ovarian cancer cells, mTOR", "type": "cell-based, human", "settings": "treated 24 hours, Western blot", "description": "as §6, §5, §1"}, "AKT [6]": {"tested_on": "AKT", "experiment": "Western blotting of ovarian cancer cells, AKT", "type": "cell-based, human", "settings": "treated 24 hours, Western blot", "description": "as §6, §5, §1"}, "mTOR [7]": {"tested_on": "mTOR", "experiment": "Reverse Phase Protein Array (RPPA), mTOR", "type": "cell-based, human", "description": "as §1"}, "[8]": {"tested_on": "human endothelial cell (hEC) spheroids", "experiment": "Spheroid assay, VEGF-induced endothelial sprouting", "type": "cell-based", "description": "A spheriod assay was performed including growing human endothelial cell (hEC) spheroids and adding VEGF (1000 cells/spheroid; 200 sph/condition) for 24 hours using a hanging drog procedure with methyl-cellulose, then harvesting, adding GP-2250, and suspending in fibrinogen/thrombin matrix. The suspension was then transferred to a 24 well plate and incubated for 24 hours at 37° C. FIG. 1: VEGF-induced Endothelial Sprouting: Impact of GP-2250, Spheroid assay. […] Tip cells form sprouts, and stalk cells form capillary lumen as shown in the image (bottom).\nFIG. 4 quantifies the effects of PBS control, Delta-like 4 (DLL4), and GP-2250 (at 2.5 μg/ml or at 10 μg/ml) on VEGF-induced endothelial cell sprouting."}, "[9]": {"settings": "2.5 μg/ml or 10 μg/ml, compared to control"}}, "note": "Entries after “also recorded” stand apart in the source; their conditions may differ.", "data": [{"compound": "O=S1(=O)CCOCN1", "note": "[GP-2250]", "values": [{"measurement": "hexokinase activity and protein expression levels", "setting": "hexokinase 2; FIG. 10C", "result": "inhibits hexokinase activity and protein expression levels"}, {"measurement": "hexokinase 2 activity and expression", "setting": "hexokinase 2; ultra-high resolution mass spectrometry (HRMS) analysis", "result": "significantly reduced"}, {"measurement": "hypoxia-inducible factor-la activation and expression level", "setting": "[1]", "result": "inhibited"}, {"measurement": "downregulating AKT activation and expression", "setting": "AKT [2]", "result": "most effective"}, {"measurement": "ATP synthesis in cancer cells", "setting": "cancer cells", "result": "reduced"}, {"measurement": "glycolysis in cancer cells", "setting": "cancer cells", "result": "decreases glycolysis; also recorded: reduced glycolysis"}, {"measurement": "nodules (tumor nodule number)", "setting": "OVCAR8-L", "result": "2.9±0.48"}, {"measurement": "tumor weight", "setting": "OVCAR8-L", "result": "2.9 ± 0.48", "unit": "g"}, {"measurement": "apoptosis in ovarian cancer cells", "setting": "ovarian cancer cells", "result": "increased apoptosis"}, {"measurement": "proliferation in ovarian cancer cells", "setting": "ovarian cancer cells", "result": "reduced proliferation"}, {"measurement": "cancer cell viability", "setting": "ovarian cancer cells; FIG. 10D, with siRNA targeting hexokinase 1 and hexokinase 2", "result": "reduces cancer cell viability"}, {"measurement": "cytotoxic effect, vulnerability of HRD versus HRP ovarian cancer cells", "setting": "ovarian cancer cells; HRD (Kuramochi, OVCAR4, OVCAR8) vs HRP (A2780, OVCAR5), 10 ovarian cancer cell lines", "result": "more vulnerable to GP-2250 than Homologous Recombination Proficiency (HRP) ovarian cancer cells"}, {"measurement": "VEGF secretion in cancer cells", "setting": "VEGF", "result": "significantly reduced VEGF secretion"}, {"measurement": "AKT activation and expression level", "setting": "AKT [3]", "result": "inhibited"}, {"measurement": "HIF1α expression in cancer cells", "setting": "HIF1α", "result": "reduced HIF1α expression"}, {"measurement": "downregulating mTOR activation and expression", "setting": "mTOR [4]", "result": "most effective"}, {"measurement": "mTOR expression", "setting": "mTOR [5]", "result": "inhibits"}, {"measurement": "AKT expression", "setting": "AKT [6]", "result": "inhibits"}, {"measurement": "mTOR activation and expression level", "setting": "mTOR [7]", "result": "inhibited"}, {"measurement": "number of sprouts per spheroid", "setting": "[8]; [9]", "result": "statistically significant reductions"}, {"measurement": "total sprout length", "setting": "[8]; [9]", "result": "statistically significant reductions"}, {"measurement": "VEGF-induced endothelial cell sprouting", "setting": "[8]; GP-2250 10 μg/ml, 24 hours", "result": "inhibits VEGF-induced endothelial cell sprouting"}]}, {"compound": "bevacizumab: recombinant humanized monoclonal IgG1 antibody that specifically binds to and blocks the biological effects of VEGF [reference compound]", "values": [{"measurement": "nodules (tumor nodule number)", "setting": "OVCAR8-L", "result": "3.8±0.71"}, {"measurement": "tumor weight", "setting": "OVCAR8-L", "result": "0.43 ± 0.08", "unit": "g"}]}]}
